Laboratory results reported in patent US20260077170A1, “MICRONEEDLE DRUG DELIVERY APPARATUS AND PREPARATION METHOD THEREOF” (TSINGHUA UNIVERSITY, priority 2023, published 2026).

Key:
blood glucose = assay: Hypoglycemic effect of insulin-loaded microneedle drug delivery apparatus in minipigs; type: in vivo, experimental minipigs; conditions: delivered into duodenum by gastroscope, real-time blood glucose over 4 hours
Text: Considering the similarities between pigs and humans in the structure of the digestive system and physiological functions, experimental minipigs were used as the animal model for functional verification of the apparatus in this example. To prevent the pigs' chewing behavior from damaging the microneedle drug delivery apparatus and to take the individual variations in gastric emptying time into account, in this example, after anesthetizing the pigs, the microneedle drug delivery apparatus prepared in Example 2 was delivered into the pigs' duodenum using a gastroscope, and this moment was defined as time zero, the beginning of monitoring of the drug concentration in serum and the drug delivery effect. Central venous blood samples were collected every 20 minutes for a continuous time period of 4 hours. Real-time blood glucose was measured using a portable blood glucose meter, and the results were illustrated in FIG. 13 and FIG. 14.

[1] = Bioavailability of insulin from serum pharmacokinetic curve (human insulin ELISA); type: in vivo, experimental minipigs; conditions: minipigs, (AUC/dose) relative to subcutaneous injection group, serum insulin over 4 hours
Text: Considering the similarities between pigs and humans in the structure of the digestive system and physiological functions, experimental minipigs were used as the animal model for functional verification of the apparatus in this example. To prevent the pigs' chewing behavior from damaging the microneedle drug delivery apparatus and to take the individual variations in gastric emptying time into account, in this example, after anesthetizing the pigs, the microneedle drug delivery apparatus prepared in Example 2 was delivered into the pigs' duodenum using a gastroscope, and this moment was defined as time zero, the beginning of monitoring of the drug concentration in serum and the drug delivery effect. Central venous blood samples were collected every 20 minutes for a continuous time period of 4 hours. Excess blood was placed in a coagulation tube, left to stand for approximately 40 minutes, and then centrifuged to separate the serum. […] Calculating the area under this curve (AUC) can be used to compare the bioavailability of different drug delivery methods. […] The bioavailability was calculated as the ratio of the area under the pharmacokinetic curve (AUC)/administered dose of the test group to the corresponding value of the subcutaneous injection group, for evaluating the efficiency of a drug delivery method. […]

Substance: human recombinant insulin
- hypoglycemic effect (blood glucose): poor hypoglycemic effect
- bioavailability [1]: 0.6%
